{
  "source": "patent US4927919A",
  "about": "“Chartreusin derivatives and salts thereof” (Ishihara Sangyo Kaisha, Ltd., priority 1985, dated 1990)",
  "key": {"[1]": {"conditions": "in vivo; cited from earlier work"}, "L-1210 leukemia": {"tested_on": "L-1210 leukemia", "conditions": "cancer inoculated i.p., drug i.p.; cited from earlier work"}, "cancer": {"tested_on": "cancer", "conditions": "different sites; cited from earlier work"}, "P-388 leukemia": {"tested_on": "P-388 leukemia", "conditions": "cancer inoculated i.p., drug i.p.; cited from earlier work"}, "[2]": {"assay": "Intestinal excretion percentage of drugs", "type": "in vivo", "conditions": "DDY mice, i.v. 40 mg/kg-b.w., 2 hours", "protocol": "Each drug to be tested was administered to DDY mice intravenously at a dose of 40 mg/kg-b.w., and after 2 hours, contents of the small intestine and the large intestine and feces were extracted with a mixed solvent of chloroform and methanol. The extract was concentrated and each compound to be tested was quantitatively determined by high-speed liquid chromatography.\nThe drug tested was solution which prepared by dissolving the compound No. 17 in a small amount of dimethylacetoamide, followed by adding thereto a small amount of a surface active agent (e.g., Tween-80 ) and physiological saline."}, "B-16 melanoma": {"tested_on": "B-16 melanoma", "conditions": "cancer inoculated i.p., drug i.p.; cited from earlier work"}, "P-388 leukemia cells": {"tested_on": "P-388 leukemia cells", "assay": "Antitumor activity against P-388 leukemia cells (i.p. implanted, i.v. drug)", "type": "in vivo, BDF1 mice", "conditions": "comparison; chartreusin suspension in 0.2M Na2HPO4 / N,N-dimethylacetamide (4:1)"}},
  "data": [
    {"smiles": "CO[C@H]1[C@@H](O)[C@@H](C)O[C@H](O[C@H]2[C@H](Oc3cccc4c(O)c5c(=O)oc6ccc(C)c7c(=O)oc(c34)c5c67)O[C@H](C)[C@H](O)[C@@H]2O)[C@@H]1O", "note": "[Chartreusin, chartreusin]", "values": [
      {"measurement": "biliary excretion relative to absorption to tissues (in words)", "setting": "[1]", "value": "biliary excretion of chartreusin essentially has the precedence over absorption thereof to tissues"},
      {"measurement": "effect against L-1210 leukemia (in words)", "setting": "L-1210 leukemia", "value": "effective"},
      {"measurement": "effect when site of cancer inoculation and site of administration were different (in words)", "setting": "cancer", "value": "not effective at all"},
      {"measurement": "effect against P-388 leukemia (in words)", "setting": "P-388 leukemia", "value": "effective"},
      {"measurement": "Intestinal excretion percentage [(total amount of excretion/dose) × 100]", "setting": "[2]", "value": 37.6, "unit": "%"},
      {"measurement": "effect against B-16 melanoma (in words)", "setting": "B-16 melanoma", "value": "effective"},
      {"measurement": "T/C (%)", "setting": "P-388 leukemia cells", "value": 105, "unit": "%"}
    ]}
  ]
}
